Measured values: ChEMBL document CHEMBL5046216, “Disrupting Tryptophan in the Central Hydrophobic Region Selectively Mitigates Immunomodulatory Activities of the Innate Defence Regulator Peptide IDR-1002” (J Med Chem, 2021)
Active and inactive are the calls of the source. The rule behind the calls is not given here.

Tests used:
Mus musculus [1] = test: (§1) Antiinflammatory activity in house dust-mite-induced BALB/c mouse model of methacholine-induced airway hyperreactivity assessed as reduction in methacholine-induced newtonian resistance at 6 mg/kg , ip administered for 2 weeks after methacholine-stimulation at 12 mg/ml measured 24 hrs post-HDM challenge; format: functional, organism-based
Mus musculus [2] = test: Effect on IL-9 level in dust-mite-induced BALB/c mouse model of airway inflammation assessed as greater than 2 fold induction at 6 mg/kg, sc administered for 2 weeks and measured 24 hrs post-HDM challenge by MSD multiplex assay; format: functional, organism-based
Mus musculus [3] = test: Antiinflammatory activity in house dust-mite-induced BALB/c mouse model of airway inflammation assessed as suppression of total eosinophil count in BALF at 6 mg/kg, sc administered for 2 weeks and measured 24 hrs post-HDM challenge by Wright-Giemsa staining based microscopy; format: functional
Mus musculus [4] = test: Antiinflammatory activity in house dust-mite-induced BALB/c mouse model of airway inflammation assessed as suppression of total leukocyte count in BALF at 6 mg/kg, sc administered for 2 weeks and measured 24 hrs post-HDM challenge by Wright-Giemsa staining based microscopy; format: functional
Mus musculus [5] = test: Effect on MCP1 level in dust-mite-induced BALB/c mouse model of airway inflammation assessed as greater than 2 fold induction at 6 mg/kg, sc administered for 2 weeks and measured 24 hrs post-HDM challenge by MSD multiplex assay; format: functional, organism-based
HBEC3-KT [6] = test: Antiinflammatory activity in INFgamma-induced MCP1 expressed in human HBEC3-KT cells assessed as fold change measured after 24 hrs by ELISA relative to control; format: functional
Mus musculus [7] = test: Effect on IL-1beta level in dust-mite-induced BALB/c mouse model of airway inflammation assessed as greater than 2 fold induction at 6 mg/kg, sc administered for 2 weeks and measured 24 hrs post-HDM challenge by MSD multiplex assay; format: functional, organism-based
[8] = Retention time of the compound by HPLC analysis; format: physicochemical
Mus musculus [9] = test: Antiinflammatory activity in house dust-mite-induced BALB/c mouse model of methacholine-induced airway hyperreactivity assessed as reduction in methacholine-induced tissue damping at 6 mg/kg , ip administered for 2 weeks after methacholine-stimulation at 12 mg/ml measured 24 hrs post-HDM challenge; format: functional, organism-based
Mus musculus [10] = test: Antiinflammatory activity in house dust-mite-induced BALB/c mouse model of methacholine-induced airway hyperreactivity assessed as reduction in methacholine-induced tissue damping at 6 mg/kg , ip administered for 2 weeks after methacholine-stimulation at 50 mg/ml measured 24 hrs post-HDM challenge; format: functional
Mus musculus [11] = test: Effect on IL-17A level in dust-mite-induced BALB/c mouse model of airway inflammation assessed as greater than 2 fold induction at 6 mg/kg, sc administered for 2 weeks and measured 24 hrs post-HDM challenge by MSD multiplex assay; format: functional, organism-based
Mus musculus [12] = test: Effect on IL-31 level in dust-mite-induced BALB/c mouse model of airway inflammation assessed as greater than 2 fold induction at 6 mg/kg, sc administered for 2 weeks and measured 24 hrs post-HDM challenge by MSD multiplex assay; format: functional, organism-based
Mus musculus [13] = test: Antiinflammatory activity in house dust-mite-induced BALB/c mouse model of airway inflammation assessed as suppression of total neutrophil count in BALF at 6 mg/kg, sc administered for 2 weeks and measured 24 hrs post-HDM challenge by Wright-Giemsa staining based microscopy; format: functional
Mus musculus [14] = test: Effect on KC 10 level in dust-mite-induced BALB/c mouse model of airway inflammation assessed as greater than 2 fold induction at 6 mg/kg, sc administered for 2 weeks and measured 24 hrs post-HDM challenge by MSD multiplex assay; format: functional, organism-based
Mus musculus [15] = test: Effect on IL-25 level in dust-mite-induced BALB/c mouse model of airway inflammation assessed as greater than 2 fold induction at 6 mg/kg, sc administered for 2 weeks and measured 24 hrs post-HDM challenge by MSD multiplex assay; format: functional, organism-based
Mus musculus [16] = test: Effect on IL-6 level in dust-mite-induced BALB/c mouse model of airway inflammation assessed as greater than 2 fold induction at 6 mg/kg, sc administered for 2 weeks and measured 24 hrs post-HDM challenge by MSD multiplex assay; format: functional, organism-based
Mus musculus [17] = test: Effect on IL-23 level in dust-mite-induced BALB/c mouse model of airway inflammation assessed as greater than 2 fold induction at 6 mg/kg, sc administered for 2 weeks and measured 24 hrs post-HDM challenge by MSD multiplex assay; format: functional, organism-based
Mus musculus [18] = test: Antiinflammatory activity in house dust-mite-induced BALB/c mouse model of methacholine-induced airway hyperreactivity assessed as reduction in methacholine-induced tissue elastance at 6 mg/kg , ip administered for 2 weeks after methacholine-stimulation at 12 mg/ml measured 24 hrs post-HDM challenge; format: functional, organism-based
Mus musculus [19] = test: Effect on TNF 1 level in dust-mite-induced BALB/c mouse model of airway inflammation assessed as greater than 2 fold induction at 6 mg/kg, sc administered for 2 weeks and measured 24 hrs post-HDM challenge by MSD multiplex assay; format: functional, organism-based
HBEC3-KT [20] = test: Antiinflammatory activity in human HBEC3-KT cells assessed as fold increase in IL-1RA expression at 10 uM measured after 24 hrs by ELISA relative to control; format: functional
Mus musculus [21] = test: Effect on IL-12p70 level in dust-mite-induced BALB/c mouse model of airway inflammation assessed as greater than 2 fold induction at 6 mg/kg, sc administered for 2 weeks and measured 24 hrs post-HDM challenge by MSD multiplex assay; format: functional, organism-based
Mus musculus [22] = test: Effect on IL-10 level in dust-mite-induced BALB/c mouse model of airway inflammation assessed as greater than 2 fold induction at 6 mg/kg, sc administered for 2 weeks and measured 24 hrs post-HDM challenge by MSD multiplex assay; format: functional, organism-based
Mus musculus [23] = test: Effect on IL-2 level in dust-mite-induced BALB/c mouse model of airway inflammation assessed as greater than 2 fold induction at 6 mg/kg, sc administered for 2 weeks and measured 24 hrs post-HDM challenge by MSD multiplex assay; format: functional, organism-based
Mus musculus [24] = test: Effect on IL-21 level in dust-mite-induced BALB/c mouse model of airway inflammation assessed as greater than 2 fold induction at 6 mg/kg, sc administered for 2 weeks and measured 24 hrs post-HDM challenge by MSD multiplex assay; format: functional, organism-based
HBEC3-KT [25] = test: Immunomodulatory activity in human HBEC3-KT cells assessed as suppression of INFgamma-induced IL-33 at 10 uM preincubated for 30 mins followed by INFgamma stimulation and measured after 24 hrs by Western blot analysis; format: functional; conditions: 0.5 h
Mus musculus [26] = test: Effect on MIP3alpha level in dust-mite-induced BALB/c mouse model of airway inflammation assessed as greater than 2 fold induction at 6 mg/kg, sc administered for 2 weeks and measured 24 hrs post-HDM challenge by MSD multiplex assay; format: functional, organism-based
Mus musculus [27] = test: Effect on IP10 level in dust-mite-induced BALB/c mouse model of airway inflammation assessed as greater than 2 fold induction at 6 mg/kg, sc administered for 2 weeks and measured 24 hrs post-HDM challenge by MSD multiplex assay; format: functional, organism-based
Mus musculus [28] = test: Effect on IL-5 level in dust-mite-induced BALB/c mouse model of airway inflammation assessed as greater than 2 fold induction at 6 mg/kg, sc administered for 2 weeks and measured 24 hrs post-HDM challenge by MSD multiplex assay; format: functional, organism-based
Mus musculus [29] = test: Effect on IL-4 level in dust-mite-induced BALB/c mouse model of airway inflammation assessed as greater than 2 fold induction at 6 mg/kg, sc administered for 2 weeks and measured 24 hrs post-HDM challenge by MSD multiplex assay; format: functional, organism-based
Mus musculus [30] = test: Antiinflammatory activity in house dust-mite-induced BALB/c mouse model of methacholine-induced airway hyperreactivity assessed as reduction in methacholine-induced tissue elastance at 6 mg/kg , ip administered for 2 weeks after methacholine-stimulation at 50 mg/ml measured 24 hrs post-HDM challenge; format: functional
Mus musculus [31] = test: Effect on MIP2 level in dust-mite-induced BALB/c mouse model of airway inflammation assessed as greater than 2 fold induction at 6 mg/kg, sc administered for 2 weeks and measured 24 hrs post-HDM challenge by MSD multiplex assay; format: functional, organism-based
Mus musculus [32] = test: Effect on IL-17AF level in dust-mite-induced BALB/c mouse model of airway inflammation assessed as greater than 2 fold induction at 6 mg/kg, sc administered for 2 weeks and measured 24 hrs post-HDM challenge by MSD multiplex assay; format: functional, organism-based
[33] = Stability of the compound in human HBEC3-KT cells assessed as compound degradation ay 10 uM measured after 16 hrs by FRET assay relative to control; format: functional
Mus musculus [34] = test: Effect on IL-30 level in dust-mite-induced BALB/c mouse model of airway inflammation assessed as greater than 2 fold induction at 6 mg/kg, sc administered for 2 weeks and measured 24 hrs post-HDM challenge by MSD multiplex assay; format: functional, organism-based
HBEC3-KT [35] = test: Antiinflammatory activity in human HBEC3-KT cells assessed as effect on MCP1 expression measured after 24 hrs by ELISA relative to control; format: functional, cell-based
Mus musculus [36] = test: Effect on IL-15 level in dust-mite-induced BALB/c mouse model of airway inflammation assessed as greater than 2 fold induction at 6 mg/kg, sc administered for 2 weeks and measured 24 hrs post-HDM challenge by MSD multiplex assay; format: functional, organism-based
Mus musculus [37] = test: Effect on IL-22 level in dust-mite-induced BALB/c mouse model of airway inflammation assessed as greater than 2 fold induction at 6 mg/kg, sc administered for 2 weeks and measured 24 hrs post-HDM challenge by MSD multiplex assay; format: functional, organism-based
Mus musculus [38] = test: Effect on IFNgamma level in dust-mite-induced BALB/c mouse model of airway inflammation assessed as greater than 2 fold induction at 6 mg/kg, sc administered for 2 weeks and measured 24 hrs post-HDM challenge by MSD multiplex assay; format: functional, organism-based
HBEC3-KT [39] = test: Antiinflammatory activity in human HBEC3-KT cells assessed as fold increase in STC1 expression at 10 uM measured after 24 hrs by ELISA relative to control; format: functional
HBEC3-KT [40] = test: Cytotoxicity against human HBEC3-KT incubated for 24 hrs by LDH assay; format: functional
Mus musculus [41] = test: Effect on IL-17F level in dust-mite-induced BALB/c mouse model of airway inflammation assessed as greater than 2 fold induction at 6 mg/kg, sc administered for 2 weeks and measured 24 hrs post-HDM challenge by MSD multiplex assay; format: functional, organism-based
Mus musculus [42] = test: Antiinflammatory activity in house dust-mite-induced BALB/c mouse model of airway inflammation assessed as suppression of IL-33 abundance in lung tissue lysate at 6 mg/kg, sc administered for 2 weeks and measured 24 hrs post-HDM challenge by ELISA; format: functional
Mus musculus [43] = test: Effect on IL-17C level in dust-mite-induced BALB/c mouse model of airway inflammation assessed as greater than 2 fold induction at 6 mg/kg, sc administered for 2 weeks and measured 24 hrs post-HDM challenge by MSD multiplex assay; format: functional, organism-based
Mus musculus [44] = test: Effect on MIP1alpha level in dust-mite-induced BALB/c mouse model of airway inflammation assessed as greater than 2 fold induction at 6 mg/kg, sc administered for 2 weeks and measured 24 hrs post-HDM challenge by MSD multiplex assay; format: functional, organism-based
Mus musculus [45] = test: as §1, with “50” for “12”; format: functional

In the case of H-VQRWLIVWRIRK-OH, the Activity (Mus musculus [1]) is reported as “Active”, the Activity (Mus musculus [2]) is reported as “inactive” and the Activity (Mus musculus [3]) is reported as 63%. The Activity (Mus musculus [4]) was 66%, the Activity (Mus musculus [5]) was “inactive” and the “fold change (FC)” value (HBEC3-KT [6]) was 3.8. For the same substance, the Activity (Mus musculus [7]) was “inactive”, the Retention_time [8] was 16.16 min and the Activity (Mus musculus [9]) was “Active”. The Activity (Mus musculus [10]) was “Active”, the Activity (Mus musculus [11]) was “inactive” and the Activity (Mus musculus [12]) was “inactive”. The Activity (Mus musculus [13]) was 60%, the Activity (Mus musculus [14]) was “inactive” and the Activity (Mus musculus [15]) was “inactive”. For the same substance, the Activity (Mus musculus [16]) was “inactive”, the Activity (Mus musculus [17]) was “inactive” and the Activity (Mus musculus [18]) was “Active”. The Activity (Mus musculus [19]) was “inactive”, the “fold change (FC)” value (HBEC3-KT [20]) was 2.6 and the Activity (Mus musculus [21]) was “inactive”. For the same substance, the Activity (Mus musculus [22]) was “inactive”, the Activity (Mus musculus [23]) was “inactive” and the Activity (Mus musculus [24]) was “inactive”. For the same substance, the Activity (HBEC3-KT [25]) was 85%, the Activity (Mus musculus [26]) was “inactive” and the Activity (Mus musculus [27]) was “inactive”. For the same substance, the Activity (Mus musculus [28]) was “inactive”, the Activity (Mus musculus [29]) was “inactive” and the Activity (Mus musculus [30]) was “Active”. The Activity (Mus musculus [31]) was “inactive”, the Activity (Mus musculus [32]) was “inactive” and the Activity [33] was less than 5%. For the same substance, the Activity (Mus musculus [34]) was “inactive”, the Activity (HBEC3-KT [35]) was “inactive” and the Activity (Mus musculus [36]) was “inactive”. The Activity (Mus musculus [37]) was “inactive”, the Activity (Mus musculus [38]) was “inactive” and the “fold change (FC)” value (HBEC3-KT [39]) was 4. The Activity (HBEC3-KT [40]) was “<=15%”, the Activity (Mus musculus [41]) was “inactive” and the Activity (Mus musculus [42]) was greater than 40%. The Activity (Mus musculus [43]) was “inactive”, the Activity (Mus musculus [44]) was “inactive” and the Activity (Mus musculus [45]) was “Active”.
Substance H-VQRWLIVWRIWK-OH has a Retention_time [8] of 18.47 min and an Activity (HBEC3-KT [40]) of 50%.
With H-VRRWLIVWRIRK-OH the “fold change (FC)” value (HBEC3-KT [6]) was 2.9, the Retention_time [8] was 16.06 min and the “fold change (FC)” value (HBEC3-KT [20]) was 2.6. The Activity (HBEC3-KT [25]) was 70%, the Activity (HBEC3-KT [35]) was “inactive” and the “fold change (FC)” value (HBEC3-KT [39]) was 6. For the same substance, the Activity (HBEC3-KT [40]) was “<=15%”.
